Test results published in patent US20110263454A1, “Methods of Identifying Functional Characteristics of Promoters, Transcription Modifying Proteins and Transcription Modulating Agents” (Salk Institute for Biological Studies, priority 2008, published 2011).

Key:
hIRF7 promoter = assay: NHR-promoter luciferase screen, hIRF7 promoter; assay type: cell-based, human; settings: for Normalized Luc. act., normalized to control / Luc. act., normalized to lacZ: IRF7 promoter reporter; for Normalized Luc. act., normalized to control: HR without or with its ligand, relative to control; for Luc. act., normalized to lacZ: hormone receptor (HR) without or with its ligand; for hIRF7 promoter reporter activity: transcription factor +/- ligand, control = 1.00
Protocol: (§1) The use, feasibility, and reproducibility of the functional NHR-promoter screen in a 48-well format have been tested validated. Briefly, there were co-expressed 50 ng of each NHR/NHR homodimer or NHR/RXR heterodimer with 100 ng promoter/luciferase construct and 50 ng of LacZ (as a control for transfection efficiency) in CV-1 cells using Fugene HD (Roche) as a transfection reagent (alternatively or additionally, a CMV-YFP construct can be used as a transfection control). Each of the nuclear hormone receptors that were used in these experiments was cloned into a pcDNA3.1 vector and comprised a C-terminally linked V5H6 tag. Twenty-four hours after transfection, appropriate ligands were added, where applicable, (see Table 5 for various ligands and concentrations and after 48 hrs, samples were assayed for luciferase and LacZ activity. To measure for luciferase activity 15 ul of sample was added to 30 ul of luciferase buffer (20 mM tricine, 1.07 mM MgCarbonate, 2.67 mM MgSulfate, 0.1 mM Naz-EDTA, 5 mM DTT, 5 mM ATP, 0.15 mg/ml CoA, 0.5 mM Luciferin), mixed briefly, and run in a Perkin Elmer Victor 5 luminometer. Thus, the functional NHR-promoter screen was used to observe the transcriptional activity of 29 promoters from various physiological pathways including inflammation, lipid and sugar metabolism, cholesterol transport, xenobiotic metabolism, and circadian rhythm.
(§2) The promoters that facilitate transcription of the indicated gene products that were tested using the protocols described herein are listed in the first row of the table. The nuclear hormone receptors and, where applicable, ligands that were assayed for their transcriptional effects on the promoters are listed in the first column of the table. The data represent the luciferase activity of each sample normalized to both the lacZ activity of that sample and to a control, e.g., no NHR or ligand, as customary in the art. As described previously, these normalizations allow the transcriptional activity of each reporter cell to be compared to other samples.
(§3) Tables 7-40 show the transcriptional effects of the hormone receptors, and, where applicable, ligands (orphan receptors are screened without ligand), on each individual promoter. […] The control data of each table are shown in their last rows.

mADRP promoter = assay: NHR-promoter luciferase screen, mADRP promoter; assay type: cell-based, mouse; settings: for Luc. act., normalized to lacZ / Normalized Luc. act., normalized to control: ADRP promoter, HR/ligand component; for mADRP promoter reporter activity: transcription factor +/- ligand, control = 1.00
Protocol: as §1, §2, §3

mDio2 promoter = assay: NHR-promoter luciferase screen, mDio2 promoter; assay type: cell-based, mouse; settings: for Luc. act., normalized to lacZ / Normalized Luc. act., normalized to control: Dio2, HR component without or with its ligand; for mDio2 promoter reporter activity: transcription factor +/- ligand, control = 1.00
Protocol: as §1, §2, §3

hIFNg promoter = assay: NHR-promoter luciferase screen, hIFNg promoter; assay type: cell-based, human; settings: for Luc. act., normalized to lacZ / Normalized Luc. act., normalized to control: IFNg promoter, HR component without or with ligand; for hIFNg promoter reporter activity: transcription factor +/- ligand, control = 1.00
Protocol: as §1, §2, §3

SREBP1c promoter = assay: NHR-promoter luciferase screen, SREBP1c promoter; assay type: cell-based, mouse; settings: for Luc. act., normalized to lacZ / Normalized Luc. act., normalized to control: SREBP1c promoter, HR component without or with ligand; for mSREBP1-c promoter reporter activity: transcription factor +/- ligand, control = 1.00
Protocol: as §1, §2, §3

hPPARg2 promoter = assay: NHR-promoter luciferase screen, hPPARg2 promoter; assay type: cell-based, human; settings: for Luc. act., normalized to lacZ / Normalized Luc. act., normalized to control: PPARG2 promoter, hormone receptor with or without its ligand; for Normalized Luc. act., normalized to control: relative to control; for Results of assays of transcription factor (+/- ligand) with hPPARg2: Table 6d, luciferase activity relative to control (control = 1.00)
Protocol: as §1, §2, §3

Substance	Normalized Luc. act., normalized to control (hIRF7 promoter)	Luc. act., normalized to lacZ (hIRF7 promoter)	hIRF7 promoter reporter activity (hIRF7 promoter)	Luc. act., normalized to lacZ (mADRP promoter)	Normalized Luc. act., normalized to control (mADRP promoter)	mADRP promoter reporter activity (mADRP promoter)	Luc. act., normalized to lacZ (mDio2 promoter)	Normalized Luc. act., normalized to control (mDio2 promoter)	mDio2 promoter reporter activity (mDio2 promoter)	Luc. act., normalized to lacZ (hIFNg promoter)	Normalized Luc. act., normalized to control (hIFNg promoter)	hIFNg promoter reporter activity (hIFNg promoter)	Luc. act., normalized to lacZ (SREBP1c promoter)	Normalized Luc. act., normalized to control (SREBP1c promoter)	mSREBP1-c promoter reporter activity (SREBP1c promoter)	Luc. act., normalized to lacZ (hPPARg2 promoter)	Normalized Luc. act., normalized to control (hPPARg2 promoter)	Results of assays of transcription factor (+/- ligand) with hPPARg2 (hPPARg2 promoter)	regulation of the SREBP1c promoter (SREBP1c promoter; FIG. 2b, in words)
AR: Androsterone Receptor (NR3C4), cDNA driver	1.1	29.9	1.14	600.8	1.2	1.21	19.7	1.3	1.26	31.4	2.0	1.97	418.4	1.3	1.30	2.7	1.3	1.34	
ERR1: Estrogen Related Receptor α (NR3B1, ERRa), cDNA driver	1.2	31.3	1.19	767.6	1.5	1.54	34.6	2.2	2.20	18.5	1.2	1.17	316.8	1.0	0.98	1.7	0.8	0.84	
GR: Glucocorticoid Receptor (NR3C1), cDNA driver	0.7	18.9	0.72	238.1	0.5	0.48	13.2	0.8	0.84	8.9	0.6	0.56	150.3	0.5	0.47	2.3	1.1	1.15	
LXRa: Liver X Receptor α (NR1H3), cDNA driver	1.3	33.2	1.26	1095.7	2.2	2.20	19.0	1.2	1.21	24.59	1.5	1.55	5951.9	18.5	18.48	1.3	0.6	0.64	specific and strong activation
NR4a1: NR4a1 (NR4A1; NUR77), nuclear hormone receptor cDNA driver	2.3	61.0	2.31	1029.3	2.1	2.07	21.8	1.4	1.39	35.6	2.2	2.24	408.2	1.3	1.27	1.6	0.8	0.81	
PNR: Photoreceptor-specific Nuclear Receptor (NR2E3), cDNA driver	1.0	27.5	1.04	381.7	0.8	0.77	14.0	0.9	0.89	11.3	0.7	0.71	265.7	0.8	0.82	1.0	0.5	0.51	
PPARa: Peroxisome proliferator activated receptor α (NR1C1), cDNA driver	1.4	36.6	1.39	1497.1	3.0	3.01	23.0	1.5	1.46	11.3	0.7	0.71	935.6	2.9	2.90	2.4	1.2	1.20	
PPARg: Peroxisome proliferator activated receptor γ (NR1C3), cDNA driver	1.7	44.8	1.70	891.4	1.8	1.79	35.5	2.3	2.26	24.04	1.5	1.51	795.8	2.5	2.47	2.2	1.1	1.08	
RXRa: Retinoic X Receptor α (NR2B1), cDNA driver	1.0	27.5	1.04	783.2	1.6	1.57	18.6	1.2	1.18	13.1	0.8	0.82	521.9	1.6	1.62	1.3	0.7	0.67	
SF-1: Steroidogenic Factor 1 (NR5A1, SF1), cDNA driver	2.5	65.5	2.49	1864.1	3.7	3.75	63.2	4.0	4.02	46.3	2.9	2.91	916.0	2.8	2.84	2.2	1.1	1.09	
TLX: Tailless (homolog of drosophila) (NR2E1), cDNA driver	2.1	55.0	2.09	259.2	0.5	0.52	9.5	0.6	0.60	28.0	1.8	1.76	352.4	1.1	1.09	0.9	0.4	0.43	
